The text below walks through data of patent US12275718B2, “Small molecule inhibitors of galectin-3” (BRISTOL-MYERS SQUIBB COMPANY, priority 2018, dated 2025).

The term IC50 denotes the point on the concentration scale where inhibition reaches its midpoint.

Sequence of His-tagged recombinant human Gal-3 (hGal-3) (P17931 whole entry): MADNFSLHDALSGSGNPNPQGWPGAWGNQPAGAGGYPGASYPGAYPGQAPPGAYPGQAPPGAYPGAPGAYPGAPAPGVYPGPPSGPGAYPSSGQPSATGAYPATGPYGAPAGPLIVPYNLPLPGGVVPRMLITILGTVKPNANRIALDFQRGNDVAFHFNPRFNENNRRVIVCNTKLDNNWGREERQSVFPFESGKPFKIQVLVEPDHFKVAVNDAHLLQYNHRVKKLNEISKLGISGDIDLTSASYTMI

For this experiment, the target named is His-tagged recombinant human Gal-3 (hGal-3) (Homo sapiens, UniProt P17931). The experiment is described as follows: Gal-3 HTRF assay (His-tagged hGal-3 / B-ASF). It is filed as binding. The following applies: hGal-3 15 nM, B-ASF 15 nM, room temperature, three replicates. On the procedure: • ASSAY BUFFER Composition: 25 mM HEPES, 100 mM NaCl, 0.005% Tween 20, 0.05% BSA prepared in sterile water (all reagents from Sigma) Controls: • Positive Control: 100% DMSO (1 μl)+His-tagged hGal-3 (20 μL)+B-ASF (20 μl)+Anti-His Terbium Antibody (5 μl)+Strep d2 Antibody (5 μl). • Negative Control: […] (1 μl)+His-tagged hGal-3 (20 μL)+Anti His Terbium Antibody (5 μl)+Strep d2 Aantibody (5 μl). Stocks Preparation:
PROTOCOL: The Gal-3 assays were performed in 384 white Opti plates in three replicates at room temperature with gentle shaking at 250-300 rpm From the original stocks, […] working stock concentrations of His-tagged recombinant human Gal-3 (hGal-3) and that of B-ASF were prepared. From the working stock, 20 μl of hGal-3 (15 nM) and 20 μl B-ASF (15 nM) were added to the plates. In Negative Control, only hGal-3 was added. A concentration range of 50× working stocks were prepared for the compounds in […]. Aliquots of 1 uL of the compounds were added to the wells and pre-incubated with 20 μl hGal-3 per well for 30 minutes Then 20 μl B-ASF were added and incubated for another 1 hour. To detect the signal, 5 μL (final conc. of 1.0 nM) terbium labelled Anti-His antibody was added and incubated for 30 min followed by adding 5 μL (final conc. of 20 nM) Streptavidin d2 and incubation for another 1 hour. The assay signal was detected using HTRF screen protocol (Excitation wavelength=340 nm, emission wavelength=615 nm/665 nm) on Envision 2104 Multilabel Reader. Data analysed using Toolset and Curve Master. Results are reported in the experimental section (IC50 in μM).
As for `Cc1nc(C2OC(CO)C(O)C(n3cc(-c4cc(F)c(F)c(F)c4)nn3)C2OCC(=O)NCCCCCNC(=O)COC2C(c3nc(C)nn3-c3cc(Cl)ccc3Cl)OC(CO)C(O)C2n2cc(-c3cc(F)c(F)c(F)c3)nn2)n(-c2cc(Cl)ccc2Cl)n1` (stereo not drawn) [Example 2], the IC50 came to 1 nM.
Turning to `Cc1nc([C@H]2O[C@@H](CO)[C@@H](O)[C@@H](n3cc(-c4ccc(Cl)c(F)c4)nn3)[C@@H]2OCC(=O)NCCCCCNC(=O)CO[C@@H]2[C@@H](n3cc(-c4ccc(Cl)c(F)c4)nn3)[C@@H](O)[C@@H](CO)O[C@H]2c2nc(C)nn2-c2cc(Cl)ccc2Cl)n(-c2cc(Cl)ccc2Cl)n1` [Example 5], the IC50 stood at 10 nM.
Then `Cc1nc([C@H]2O[C@@H](CO)[C@@H](O)[C@@H](n3cc(-c4cc(F)c(Cl)c(F)c4)nn3)[C@@H]2OCC(=O)NCCCNC(=O)CO[C@@H]2[C@@H](n3cc(-c4cc(F)c(Cl)c(F)c4)nn3)[C@@H](O)[C@@H](CO)O[C@H]2c2nc(C)nn2-c2cc(Cl)ccc2C(F)(F)F)n(-c2cc(Cl)ccc2C(F)(F)F)n1` [Example 6], with 1 nM.
Then `Cc1nc([C@H]2O[C@@H](CO)[C@@H](O)[C@@H](n3cc(-c4cc(F)c(Cl)c(F)c4)nn3)[C@@H]2OCC(=O)NCCCCNC(=O)CO[C@@H]2[C@@H](n3cc(-c4cc(F)c(Cl)c(F)c4)nn3)[C@@H](O)[C@@H](CO)O[C@H]2c2nc(C)nn2-c2cc(Cl)ccc2C(F)(F)F)n(-c2cc(Cl)ccc2C(F)(F)F)n1` [Example 7], with 1 nM; and `Cc1nc([C@H]2O[C@@H](CO)[C@@H](O)[C@@H](n3cc(-c4cc(F)c(Cl)c(F)c4)nn3)[C@@H]2OCC(=O)NCCCCCNC(=O)CO[C@@H]2[C@@H](n3cc(-c4cc(F)c(Cl)c(F)c4)nn3)[C@@H](O)[C@@H](CO)O[C@H]2c2nc(C)nn2-c2cc(Cl)ccc2C(F)(F)F)n(-c2cc(Cl)ccc2C(F)(F)F)n1` [Example 8], with 1 nM; and `Cc1nc([C@H]2O[C@@H](CO)[C@@H](O)[C@@H](n3cc(-c4cc(F)c(Cl)c(F)c4)nn3)[C@@H]2OCC(=O)NCCCCCCNC(=O)CO[C@@H]2[C@@H](n3cc(-c4cc(F)c(Cl)c(F)c4)nn3)[C@@H](O)[C@@H](CO)O[C@H]2c2nc(C)nn2-c2cc(Cl)ccc2Cl)n(-c2cc(Cl)ccc2Cl)n1` [Example 9], with 6 nM.
Take `Cc1nc([C@H]2O[C@@H](CO)[C@@H](O)[C@@H](n3cc(-c4cc(F)c(Cl)c(F)c4)nn3)[C@@H]2OCC(=O)NCCCCCCCNC(=O)CO[C@@H]2[C@@H](n3cc(-c4cc(F)c(Cl)c(F)c4)nn3)[C@@H](O)[C@@H](CO)O[C@H]2c2nc(C)nn2-c2cc(Cl)ccc2Cl)n(-c2cc(Cl)ccc2Cl)n1` [Example 10]: the IC50 turned out to be 10 nM.
`Cc1nc([C@H]2O[C@@H](CO)[C@@H](O)[C@@H](n3cc(-c4cc(F)c(Cl)c(F)c4)nn3)[C@@H]2OCC(=O)NCCCCCNC(=O)CO[C@@H]2[C@@H](n3cc(-c4cc(F)c(Cl)c(F)c4)nn3)[C@@H](O)[C@@H](CO)O[C@H]2c2nc(C)nn2-c2cc(Cl)ccc2Cl)n(-c2cc(Cl)ccc2Cl)n1` [Example 11]: the IC50 came to 1 nM.
As for `Cc1nc([C@H]2O[C@@H](CO)[C@@H](O)[C@@H](n3cc(-c4cc(F)c(Cl)c(F)c4)nn3)[C@@H]2OCC(=O)NCCCCNC(=O)CO[C@@H]2[C@@H](n3cc(-c4cc(F)c(Cl)c(F)c4)nn3)[C@@H](O)[C@@H](CO)O[C@H]2c2nc(C)nn2-c2cc(Cl)ccc2Cl)n(-c2cc(Cl)ccc2Cl)n1` [Example 12], the IC50 amounted to 1 nM.
Then `Cc1nc([C@H]2O[C@@H](CO)[C@@H](O)[C@@H](n3cc(-c4cc(F)c(Cl)c(F)c4)nn3)[C@@H]2OCC(=O)NCCNC(=O)CO[C@@H]2[C@@H](n3cc(-c4cc(F)c(Cl)c(F)c4)nn3)[C@@H](O)[C@@H](CO)O[C@H]2c2nc(C)nn2-c2cc(Cl)ccc2Cl)n(-c2cc(Cl)ccc2Cl)n1` [Example 13], with 1 nM; and `Cc1nc([C@H]2O[C@@H](CO)[C@@H](O)[C@@H](n3cc(-c4cc(F)c(Cl)c(F)c4)nn3)[C@@H]2OCC(=O)N(C)CCCCN(C)C(=O)CO[C@@H]2[C@@H](n3cc(-c4cc(F)c(Cl)c(F)c4)nn3)[C@@H](O)[C@@H](CO)O[C@H]2c2nc(C)nn2-c2cc(Cl)ccc2Cl)n(-c2cc(Cl)ccc2Cl)n1` [Example 15], with 5 nM; and `Cc1nc([C@H]2O[C@@H](CO)[C@@H](O)[C@@H](n3cc(-c4ccc(Cl)c(F)c4)nn3)[C@@H]2OCCCCCCCCCCO[C@@H]2[C@@H](n3cc(-c4ccc(Cl)c(F)c4)nn3)[C@@H](O)[C@@H](CO)O[C@H]2c2nc(C)nn2-c2cc(Cl)ccc2Cl)n(-c2cc(Cl)ccc2Cl)n1` [Example 16, (2R,3R,4S,5R,6S)-4-(4-(4-chloro-3-fluorophenyl)-1H-1,2,3-triazol-1-yl)-5-((10-(((2R,3S,4R,5S,6S)-4-(4-(4-chloro-3-fluorophenyl)-1H-1,2,3-triazol-1-yl)-2-(1-(2,5-dichlorophenyl)-3-methyl-1H-1,2,4-triazol-5-yl)-5-hydroxy-6-(hydroxymethyl)tetrahydro-2H-pyran-3-yl)oxy)decyl)oxy)-6-(1-(2,5-dichlorophenyl)-3-methyl-1H-1,2,4-triazol-5-yl)-2-(hydroxymethyl)tetrahydro-2H-pyran-3-ol], with 10000 nM.
As for `Cc1nc([C@H]2O[C@@H](CO)[C@@H](O)[C@@H](n3cc(-c4cc(F)c(Cl)c(F)c4)nn3)[C@@H]2OCCCCCCCCO[C@@H]2[C@@H](n3cc(-c4cc(F)c(Cl)c(F)c4)nn3)[C@@H](O)[C@@H](CO)O[C@H]2c2nc(C)nn2-c2cc(Cl)ccc2Cl)n(-c2cc(Cl)ccc2Cl)n1` [Example 17, (2R,3R,4S,5R,6S)-4-(4-(4-chloro-3,5-difluorophenyl)-1H-1,2,3-triazol-1-yl)-5-((8-(((2R,3S,4R,5S,6S)-4-(4-(4-chloro-3,5-difluorophenyl)-1H-1,2,3-triazol-1-yl)-2-(1-(2,5-dichlorophenyl)-3-methyl-1H-1,2,4-triazol-5-yl)-5-hydroxy-6-(hydroxymethyl)tetrahydro-2H-pyran-3-yl)oxy)octyl)oxy)-6-(1-(2,5-dichlorophenyl)-3-methyl-1H-1,2,4-triazol-5-yl)-2-(hydroxymethyl)tetrahydro-2H-pyran-3-ol], the 50% inhibitory concentration (IC50) came to 2000 nM.
Then `Cc1nc(C2OC(CO)C(O)C(n3cc(-c4cc(F)c(F)c(F)c4)nn3)C2OC(=O)NCCCCNC(=O)OC2C(c3nc(C)nn3-c3cc(Cl)ccc3Cl)OC(CO)C(O)C2n2cc(-c3cc(F)c(F)c(F)c3)nn2)n(-c2cc(Cl)ccc2Cl)n1` [Example 18, (2R,3S,4R,5S,6S)-2-(1-(2,5-dichlorophenyl)-3-methyl-11H-1,2,4-triazol-5-yl)-5-hydroxy-6-(hydroxymethyl)-4-(4-(3,4,5-trifluorophenyl)-1H-1,2,3-triazol-1-yl)tetrahydro-2H-pyran-3-yl ((2S,3R,4S,5R,6R)-2-(1-(2,5-dichlorophenyl)-3-methyl-1H-1,2,4-triazol-5-yl)-5-hydroxy-6-(hydroxymethyl)-4-(4-(3,4,5-trifluorophenyl)-1H-1,2,3-triazol-1-yl)tetrahydro-2H-pyran-3-yl) butane-1,4-diyldicarbamate], with 19 nM; and `Cc1nc([C@H]2O[C@@H](CO)[C@@H](O)[C@@H](n3cc(-c4cc(F)c(Cl)c(F)c4)nn3)[C@@H]2OC(=O)NCCCNC(=O)O[C@@H]2[C@@H](n3cc(-c4cc(F)c(Cl)c(F)c4)nn3)[C@@H](O)[C@@H](CO)O[C@H]2c2nc(C)nn2-c2cc(Cl)ccc2Cl)n(-c2cc(Cl)ccc2Cl)n1` [Example 19, (2R,3S,4R,5S,6S)-4-(4-(4-chloro-3,5-difluorophenyl)-1H-1,2,3-triazol-1-yl)-2-(1-(2,5-dichlorophenyl)-3-methyl-1H-1,2,4-triazol-5-yl)-5-hydroxy-6-(hydroxymethyl)tetrahydro-2H-pyran-3-yl ((2S,3R,4S,5R,6R)-4-(4-(4-chloro-3,5-difluorophenyl)-1H-1,2,3-triazol-1-yl)-2-(1-(2,5-dichlorophenyl)-3-methyl-1H-1,2,4-triazol-5-yl)-5-hydroxy-6-(hydroxymethyl)tetrahydro-2H-pyran-3-yl) propane-1,3-diyldicarbamate], with 110 nM.
On to `Cc1nc([C@H]2O[C@@H](CO)[C@@H](O)[C@@H](n3cc(-c4cc(F)c(Cl)c(F)c4)nn3)[C@@H]2OCC(=O)N(C)CCN(C)C(=O)CO[C@@H]2[C@@H](n3cc(-c4cc(F)c(Cl)c(F)c4)nn3)[C@@H](O)[C@@H](CO)O[C@H]2c2nc(C)nn2-c2cc(Cl)ccc2Cl)n(-c2cc(Cl)ccc2Cl)n1` [Example 21], for which the IC50 turned out to be 2 nM.
As to `Cc1nc([C@H]2O[C@@H](CO)[C@@H](O)[C@@H](n3cc(-c4cc(F)c(Cl)c(F)c4)nn3)[C@@H]2OCC(=O)N2CCN(C(=O)CO[C@@H]3[C@@H](n4cc(-c5cc(F)c(Cl)c(F)c5)nn4)[C@@H](O)[C@@H](CO)O[C@H]3c3nc(C)nn3-c3cc(Cl)ccc3Cl)CC2)n(-c2cc(Cl)ccc2Cl)n1` [Example 22], the IC50 was found to be 4 nM.
Then `Cc1nc([C@H]2O[C@@H](CO)[C@@H](O)[C@@H](n3cc(-c4cc(F)c(Cl)c(F)c4)nn3)[C@@H]2OCC(=O)N2CCCN(C(=O)CO[C@@H]3[C@@H](n4cc(-c5cc(F)c(Cl)c(F)c5)nn4)[C@@H](O)[C@@H](CO)O[C@H]3c3nc(C)nn3-c3cc(Cl)ccc3Cl)CC2)n(-c2cc(Cl)ccc2Cl)n1` [Example 23], with 4 nM.
